Data reported in ChEMBL document CHEMBL1150758, “Heyneanine hydroxyindolenine, a new indole alkaloid from Ervatamia coronaria var. plena” (J Nat Prod, 1988).
Calls of active or inactive are those of the source. No cut-off for these calls is given here.

What was measured:
KB = assay: Cytotoxicity against human KB cells; type: functional, cell-based
P388 = assay: Cytotoxicity against mouse P388 cells; type: functional, cell-based

| Structure (SMILES) | Activity (KB) | Activity (P388) |
| --- | --- | --- |
| COC(=O)[C@@]12C[C@@H]3C[C@H]([C@H](C)O)[C@@H]1N(CC[C@]1(O)C2=Nc2ccc(OC)cc21)C3 | inactive | inactive |
| CC[C@H]1C[C@@H]2CN3CC[C@]4(O)C(=Nc5ccc(OC)cc54)[C@](C(=O)OC)(C2)[C@H]13 | inactive | inactive |
| CC[C@H]1C[C@H]2C[C@@]3(C(=O)OC)c4[nH]c5ccccc5c4CCN(C2=O)[C@@H]13 | inactive | inactive |
| CC[C@H]1C[C@@H]2CN3CC[C@]4(O)C(=Nc5ccccc54)[C@](C(=O)OC)(C2)[C@H]13 | inactive | inactive |
| COC(=O)[C@@]12C[C@@H]3C[C@H]([C@H](C)O)[C@@H]1N(CC[C@]1(O)C2=Nc2ccccc21)C3 | inactive | inactive |
